Laboratory results: patent publication US4401604A, “Process for preparing thiosulfenamide derivatives of N-phosphonomethylglycine triesters” (Monsanto Company, priority 1981, dated 1983)

Experiments:
Type in all cases: in vivo
Cocklebur [1] = assay: Post-emergence herbicidal activity, greenhouse; details: 4 WAT
Description: (§1) A good grade of top soil is placed in aluminum pans having holes in the bottom and compacted to a depth of 0.95 to 1.27 cm. from the top of the pan. A predetermined number of seeds of each of several dicotyledonous and monocotyledonous annual plant species and/or vegetative propagules for the perennial plant species are placed on the soil and pressed into the soil surface. The seeds and/or vegetative propagules are covered with soil and leveled. The pans are then placed on a sand bench in the greenhouse and watered from below as needed. After the plants reach the desired age (two to three weeks), each pan except for the control pans is removed individually to a spraying chamber and sprayed by means of an atomizer operating at a positive air pressure of approximately 1.46 kg/cm^2 absolute. The atomizer contains 6 ml. of a solution or suspension of the chemical. In that 6 ml., is an amount of a cyclohexanone emulsifying agent mixture to give a spray solution or suspension which contains about 0.4% by weight of the emulsifier. The spray solution or suspension contains a sufficient amount of the candidate chemical in order to give application rates corresponding to those set forth in the tables. The spray solution is prepared by taking an aliquot of a 1.0% by weight stock solution or suspension of the candidate chemical in an organic solvent such as acetone or tetrahydrofuran or in water. The emulsifying agent employed is a mixture comprising 35 weight percent butylamine dodecylbenzene sulfonate and 65 weight percent of a tall oil ethylene oxide condensate having about 11 moles of ethylene oxide per mole of tall oil. The pans are returned to the greenhouse and watered as before and the injury to the plants as compared to the control is observed at approximately two and four weeks as indicated in the tables under WAT and the results recorded. In some instances, the two-week observations are omitted.
(§2) The post-emergence herbicidal activity index used in Table I is as follows:
(§3) The plant species utilized in these tests are identified by letter in accordance with the following legend: […]

Lambsquarters [2] = assay: Post-emergence herbicidal activity, greenhouse; details: 4 WAT
Description: as §1, §2, §3

Yellow Nutsedge [3] = assay: Post-emergence herbicidal activity, greenhouse; details: Table I, 4 WAT
Description: as §1, §2, §3

Downy Brome [4] = assay: Post-emergence herbicidal activity, greenhouse; details: 4 WAT
Description: as §1, §2, §3

Morningglory [5] = assay: Post-emergence herbicidal activity, greenhouse; details: 4 WAT
Description: as §1, §2, §3

Canada Thistle = assay: Post-emergence herbicidal activity, greenhouse; details: Table I, 4 WAT
Description: as §1, §2, §3

Barnyardgrass [6] = assay: Post-emergence herbicidal activity, greenhouse; details: 4 WAT
Description: as §1, §2, §3

Smartweed = assay: Post-emergence herbicidal activity, greenhouse; details: 4 WAT
Description: as §1, §2, §3

Hemp Sesbania = assay: Post-emergence herbicidal activity, greenhouse; details: Table II, 4 WAT
Description: as §1, §2, §3

Wheat = assay: Post-emergence herbicidal activity, greenhouse; details: Table II, 4 WAT
Description: as §1, §2, §3

Soybean = assay: Post-emergence herbicidal activity, greenhouse; details: Table II, 4 WAT
Description: as §1, §2, §3

Sorghum = assay: Post-emergence herbicidal activity, greenhouse; details: Table II, 4 WAT
Description: as §1, §2, §3

Rice = assay: Post-emergence herbicidal activity, greenhouse; details: Table II, 4 WAT
Description: as §1, §2, §3

Sugar Beet = assay: Post-emergence herbicidal activity, greenhouse; details: Table II, 4 WAT
Description: as §1, §2, §3

Panicum Spp = assay: Post-emergence herbicidal activity, greenhouse; details: Table II, 4 WAT
Description: as §1, §2, §3

Wild Buckwheat = assay: Post-emergence herbicidal activity, greenhouse; details: Table II, 4 WAT
Description: as §1, §2, §3

Johnsongrass [7] = assay: Post-emergence herbicidal activity, greenhouse; details: Table I, 4 WAT
Description: as §1, §2, §3

Quackgrass [8] = assay: Post-emergence herbicidal activity, greenhouse; details: Table I, 4 WAT
Description: as §1, §2, §3

Velvetleaf [9] = assay: Post-emergence herbicidal activity, greenhouse; details: 4 WAT
Description: as §1, §2, §3

Crabgrass = assay: Post-emergence herbicidal activity, greenhouse; details: Table II, 4 WAT
Description: as §1, §2, §3

Cocklebur [10] = assay: Pre-emergent herbicidal activity; details: Table III; 11.2 kg/h; 2 WAT
Description: (§4) A good grade of top soil is placed in aluminum pans and compacted to a depth of 0.95 to 1.27 cm. from the top of each pan. A predetermined number of seeds or vegetative propagules of each of several plant species are placed on top of the soil in each pan and then pressed down. Herbicidal compositions prepared as in the previous example are applied by admixture with or incorporation in the top layer of soil.
(§5) In this method, the soil required to cover the seeds and propagules is weighed and admixed with a herbicidal composition containing a known amount of the active ingredient (compound of this invention). The pans are then filled with the admixture and leveled. Watering is carried out by permitting the soil in the pans to absorb moisture through apertures in the pan bottoms. The seed and propagule containing pans are placed on a wet sand bench and maintained for approximately two weeks under ordinary conditions of sunlight and watering. At the end of this period, the number of emerged plants of each species is noted and compared to an untreated control.
(§6) The pre-emergent herbicidal activity index used below is based upon average percent control of each species as follows:
(§7) Plant species in the table are identified by the same code letters used in the previous example.

Lambsquarters [11] = assay: Pre-emergent herbicidal activity; details: Table III; 11.2 kg/h; 2 WAT
Description: as §4, §5, §6, §7

Yellow Nutsedge [12] = assay: Pre-emergent herbicidal activity; details: Table III; 11.2 kg/h; 2 WAT
Description: as §4, §5, §6, §7

Downy Brome [13] = assay: Pre-emergent herbicidal activity; details: Table III; 11.2 kg/h; 2 WAT
Description: as §4, §5, §6, §7

Morningglory [14] = assay: Pre-emergent herbicidal activity; details: Table III; 11.2 kg/h; 2 WAT
Description: as §4, §5, §6, §7

Barnyardgrass [15] = assay: Pre-emergent herbicidal activity; details: Table III; 11.2 kg/h; 2 WAT
Description: as §4, §5, §6, §7

Johnsongrass [16] = assay: Pre-emergent herbicidal activity; details: Table III; 11.2 kg/h; 2 WAT
Description: as §4, §5, §6, §7

Quackgrass [17] = assay: Pre-emergent herbicidal activity; details: Table III; 11.2 kg/h; 2 WAT
Description: as §4, §5, §6, §7

Velvetleaf [18] = assay: Pre-emergent herbicidal activity; details: Table III; 11.2 kg/h; 2 WAT
Description: as §4, §5, §6, §7

Compound: CCOC(=O)CN(CP(=O)(Oc1ccc(OC)cc1)Oc1ccc(OC)cc1)SSC [VI, Glycine, N-[[bis(4-methoxyphenoxy)phosphinyl]methyl]-N-(methyldithio)-, ethyl ester]
- post-emergence herbicidal activity index (Cocklebur [1]; Table I, 5.6 kg/h): 2 (50-74% control)
- post-emergence herbicidal activity index (Cocklebur [1]; Table I, 11.2 kg/h): 3 (75-99% control)
- post-emergence herbicidal activity index (Cocklebur [1]; Table II, 0.28 kg/h): 0 (0- 24% control)
- post-emergence herbicidal activity index (Cocklebur [1]; Table II, 1.12 kg/h): 3 (75-99% control)
- post-emergence herbicidal activity index (Cocklebur [1]; Table II, 5.6 kg/h): 4 (100% control)
- post-emergence herbicidal activity index (Lambsquarters [2]; Table I, 5.6 kg/h): 3 (75-99% control)
- post-emergence herbicidal activity index (Lambsquarters [2]; Table I, 11.2 kg/h): 3 (75-99% control)
- post-emergence herbicidal activity index (Lambsquarters [2]; Table II, 0.28 kg/h): 0 (0- 24% control)
- post-emergence herbicidal activity index (Lambsquarters [2]; Table II, 1.12 kg/h): 2 (50-74% control)
- post-emergence herbicidal activity index (Lambsquarters [2]; Table II, 5.6 kg/h): 4 (100% control)
- post-emergence herbicidal activity index (Yellow Nutsedge [3]; 5.6 kg/h): 1 (25-49% control)
- post-emergence herbicidal activity index (Yellow Nutsedge [3]; 11.2 kg/h): 1 (25-49% control)
- post-emergence herbicidal activity index (Downy Brome [4]; Table I, 5.6 kg/h): 2 (50-74% control)
- post-emergence herbicidal activity index (Downy Brome [4]; Table I, 11.2 kg/h): 3 (75-99% control)
- post-emergence herbicidal activity index (Downy Brome [4]; Table II, 0.28 kg/h): 0 (0- 24% control)
- post-emergence herbicidal activity index (Downy Brome [4]; Table II, 1.12 kg/h): 2 (50-74% control)
- post-emergence herbicidal activity index (Downy Brome [4]; Table II, 5.6 kg/h): 4 (100% control)
- post-emergence herbicidal activity index (Morningglory [5]; Table I, 5.6 kg/h): 2 (50-74% control)
- post-emergence herbicidal activity index (Morningglory [5]; Table I, 11.2 kg/h): 3 (75-99% control)
- post-emergence herbicidal activity index (Morningglory [5]; Table II, 0.28 kg/h): 0 (0- 24% control)
- post-emergence herbicidal activity index (Morningglory [5]; Table II, 1.12 kg/h): 2 (50-74% control)
- post-emergence herbicidal activity index (Morningglory [5]; Table II, 5.6 kg/h): 3 (75-99% control)
- post-emergence herbicidal activity index (Canada Thistle; 5.6 kg/h): 1 (25-49% control)
- post-emergence herbicidal activity index (Canada Thistle; 11.2 kg/h): 2 (50-74% control)
- post-emergence herbicidal activity index (Barnyardgrass [6]; Table I, 5.6 kg/h): 4 (100% control)
- post-emergence herbicidal activity index (Barnyardgrass [6]; Table I, 11.2 kg/h): 3 (75-99% control)
- post-emergence herbicidal activity index (Barnyardgrass [6]; Table II, 0.28 kg/h): 0 (0- 24% control)
- post-emergence herbicidal activity index (Barnyardgrass [6]; Table II, 1.12 kg/h): 3 (75-99% control)
- post-emergence herbicidal activity index (Barnyardgrass [6]; Table II, 5.6 kg/h): 4 (100% control)
- post-emergence herbicidal activity index (Smartweed; Table I, 5.6 kg/h): 2 (50-74% control)
- post-emergence herbicidal activity index (Smartweed; Table I, 11.2 kg/h): 2 (50-74% control)
- post-emergence herbicidal activity index (Smartweed; Table II, 0.28 kg/h): 0 (0- 24% control)
- post-emergence herbicidal activity index (Smartweed; Table II, 5.6 kg/h): 4 (100% control)
- post-emergence herbicidal activity index (Hemp Sesbania; 0.28 kg/h): 0 (0- 24% control)
- post-emergence herbicidal activity index (Hemp Sesbania; 1.12 kg/h): 0 (0- 24% control)
- post-emergence herbicidal activity index (Hemp Sesbania; 5.6 kg/h): 3 (75-99% control)
- post-emergence herbicidal activity index (Wheat; 0.28 kg/h): 0 (0- 24% control)
- post-emergence herbicidal activity index (Wheat; 1.12 kg/h): 1 (25-49% control)
- post-emergence herbicidal activity index (Wheat; 5.6 kg/h): 3 (75-99% control)
- post-emergence herbicidal activity index (Soybean; 0.28 kg/h): 0 (0- 24% control)
- post-emergence herbicidal activity index (Soybean; 1.12 kg/h): 1 (25-49% control)
- post-emergence herbicidal activity index (Soybean; 5.6 kg/h): 3 (75-99% control)
- post-emergence herbicidal activity index (Sorghum; 0.28 kg/h): 0 (0- 24% control)
- post-emergence herbicidal activity index (Sorghum; 1.12 kg/h): 2 (50-74% control)
- post-emergence herbicidal activity index (Sorghum; 5.6 kg/h): 3 (75-99% control)
- post-emergence herbicidal activity index (Rice; 0.28 kg/h): 0 (0- 24% control)
- post-emergence herbicidal activity index (Rice; 1.12 kg/h): 0 (0- 24% control)
- post-emergence herbicidal activity index (Rice; 5.6 kg/h): 3 (75-99% control)
- post-emergence herbicidal activity index (Sugar Beet; 0.28 kg/h): 0 (0- 24% control)
- post-emergence herbicidal activity index (Sugar Beet; 1.12 kg/h): 1 (25-49% control)
- post-emergence herbicidal activity index (Sugar Beet; 5.6 kg/h): 4 (100% control)
- post-emergence herbicidal activity index (Panicum Spp; 0.28 kg/h): 0 (0- 24% control)
- post-emergence herbicidal activity index (Panicum Spp; 1.12 kg/h): 2 (50-74% control)
- post-emergence herbicidal activity index (Panicum Spp; 5.6 kg/h): 4 (100% control)
- post-emergence herbicidal activity index (Wild Buckwheat; 0.28 kg/h): 0 (0- 24% control)
- post-emergence herbicidal activity index (Wild Buckwheat; 1.12 kg/h): 1 (25-49% control)
- post-emergence herbicidal activity index (Wild Buckwheat; 5.6 kg/h): 4 (100% control)
- post-emergence herbicidal activity index (Johnsongrass [7]; 5.6 kg/h): 2 (50-74% control)
- post-emergence herbicidal activity index (Johnsongrass [7]; 11.2 kg/h): 3 (75-99% control)
- post-emergence herbicidal activity index (Quackgrass [8]; 5.6 kg/h): 0 (0- 24% control)
- post-emergence herbicidal activity index (Quackgrass [8]; 11.2 kg/h): 1 (25-49% control)
- post-emergence herbicidal activity index (Velvetleaf [9]; Table I, 5.6 kg/h): 1 (25-49% control)
- post-emergence herbicidal activity index (Velvetleaf [9]; Table I, 11.2 kg/h): 2 (50-74% control)
- post-emergence herbicidal activity index (Velvetleaf [9]; Table II, 0.28 kg/h): 0 (0- 24% control)
- post-emergence herbicidal activity index (Velvetleaf [9]; Table II, 1.12 kg/h): 1 (25-49% control)
- post-emergence herbicidal activity index (Velvetleaf [9]; Table II, 5.6 kg/h): 4 (100% control)
- post-emergence herbicidal activity index (Crabgrass; 0.28 kg/h): 0 (0- 24% control)
- post-emergence herbicidal activity index (Crabgrass; 1.12 kg/h): 4 (100% control)
- post-emergence herbicidal activity index (Crabgrass; 5.6 kg/h): 4 (100% control)
- pre-emergent herbicidal activity index (Cocklebur [10]): 0 (0-24% control)
- pre-emergent herbicidal activity index (Lambsquarters [11]): 0 (0-24% control)
- pre-emergent herbicidal activity index (Yellow Nutsedge [12]): 0 (0-24% control)
- pre-emergent herbicidal activity index (Downy Brome [13]): 0 (0-24% control)
- pre-emergent herbicidal activity index (Morningglory [14]): 0 (0-24% control)
- pre-emergent herbicidal activity index (Barnyardgrass [15]): 0 (0-24% control)
- pre-emergent herbicidal activity index (Johnsongrass [16]): 0 (0-24% control)
- pre-emergent herbicidal activity index (Quackgrass [17]): 0 (0-24% control)
- pre-emergent herbicidal activity index (Velvetleaf [18]): 0 (0-24% control)
